Test results: article PMC3763859 (ACS medicinal chemistry letters, 2013)

Tested on: SK-BR-3 cells
Experiment: synergy studies with c-Src inhibitor 1 in SK-BR-3
Format: cell-based
Details: 2 μM 1, 10 nM panobinostat

Cc1[nH]c2ccccc2c1CCNCc1ccc(/C=C/C(=O)NO)cc1 [panobinostat]
synergy with c-Src inhibitor 1: highly synergistic
